Assay results: patent US7608278B2, “Formulations of hydrophobic proteins in an immunogenic composition having improved tolerability” (priority 2003, dated 2009)
Where “and” joins values, the source holds several entries; their conditions need not be identical. Equal values may be shown once. Read-outs that look alike come from different tables or passages of the source.

What was measured:
rat footpad = experiment: Rat footpad (paw-lick) pain test; type: in vivo, Male Sprague Dawley rats; settings: for Mean time pain response, 0-10 min. / Mean time pain response, 10-20 min.: 8 rats per group; for Pain response in the rat footpad model (result in words): Examples 1-7 and 10, footpad injection 0.1 or 0.2 ml; for Pain in rat footpad model, survey of detergents (result in words): Example 9, injected at concentrations above the CMC for the detergent
Source text: An animal model, the rat paw-lick (footpad) model, which has previously been employed for detection of pain associated with the injection of antibiotics, was utilized (Celozzi et al. J. Pharmacol. Methods, 1980, 4:[…]; Comerski et al., Fundamental and Appl. Toxicology, 1986, 6:335-338). This model monitors the amount of time the rats spend lifting, licking, and biting the injected paw.
The “rat footpad pain” or “rat paw-lick” test or model as used herein refers to a test or model used to determine the pain induced by a specific formulation upon injection. The test consists of uniformly injecting into the footpad of rats of the same species and approximately the same weights compositions to be assessed as pain causing agents along with compositions known to cause pain at the injection site, as well as compositions known not to cause pain at the injection site. A statistically significant number of animals are to be used for each test and control formulation. After the injection, the animal is placed in a cage with mirrors and then observed by a technician (preferably blinded as to the identity of the immunogenic composition) for 20 to 30 minutes for flinching, lifting, licking, or biting of the injected paw. The amount of time spent on these pain response behaviors are recorded using a stopwatch and summed for 10 minute periods.
The phrase “less painful” as used herein refers to an alteration in the composition that leads to a reduction in the length of time or intensity, or both, of a pain response compared to that of the non-altered composition as measured by the rat footpad pain test. The phrase “50% reduction in pain” as used herein refers to a 50% reduction in the amount of time spent on pain responses as measured by the rat footpad pain test when comparing altered and unaltered immunogenic compositions administered in equal injection volumes by the same means and observed for the same length of time. The number of animals in each group is a statistically significant number. Observation of the different injection groups is preferably done by the same technician and who is blinded as to the identification of the compositions.
Rat footpad pain testing. The immunogenic composition samples were brought to room temperature prior to being administered to the animals. The animals were injected by a technician who was not involved in the monitoring of pain responses. Male Sprague Dawley rats (Crl:CD®(SD)IGS BR, 50-100 g at arrival) from Charles River Laboratories Inc. (Kingston, N.Y.) were used for all studies. The rats were acclimated at the research facility for approximately one week prior to initiation of a study, at which point they weighed 100-150 g. The paw to be injected was examined prior to injection to verify absence of any injury. The animal was then restrained in the technician's arm such that the hind legs extended forward. The right rear leg was grasped just above the hock joint and pressure was exerted to hold the paw straight out, with plantar (sole) facing upwards. Using a new 23 gauge needle for each animal, the operator inserted the bevel side up in the center of paw, parallel to the surface of the paw, until the needle was in the center of the pad. The material was then injected and the needle left in place for 3-5 seconds prior to withdrawal, to minimize leakage from the injection site. […]
The animal was then placed in a cage with 3 mirrors (adjoining sides and floor) and observed by a different technician (blinded as to the identity of the immunogenic composition) for 30 minutes for flinching, lifting, licking, or biting of the injected paw. The length of time spent on these pain response behaviors was recorded using a stopwatch and summed for 10 minute periods. […]
Statistical Analysis. Results were analyzed using an ANOVA method adjusting for multiple comparisons that compared each treatment group with control group who received buffer alone (either PBS or TBS). […]

[1] = known critical micelle concentrations, cited from earlier work
[2] = Example 1 (Table 1), 0.1 ml footpad injection, 6 rats per group
[3] = Example 4 (Table 7), 0.2 ml injection (formalin 0.1 ml), 10 rats per group
[4] = Example 6 (Table 11), 0.2 ml injection (formalin 0.1 ml), 10 rats per group
[5] = Example 7 (Table 13), 0.2 ml injection (formalin 0.1 ml), 10 rats per group
[6] = Example 9 (Table 15), concentration 5%, 100 μl
[7] = Example 9 (Table 16), concentration 5%, 100 μl
[8] = Example 9 (Table 17), concentration 5%, 100 μl
[9] = Example 9 (Table 17), concentration 7 mM, 200 μl
[10] = Example 9 (Table 16), concentration 1%, 200 μl
[11] = Example 9 (Table 16), concentration 0.9%, 200 μl
[12] = Example 9 (Table 16), concentration 0.02%, 200 μl
[13] = Example 9 (Table 15), detergent concentration 0.05%, 200 μl
[14] = Example 9 (Table 16), concentration 0.025%, 200 μl
[15] = Example 9 (Table 17), concentration 0.8%, 200 μl
[16] = Example 9 (Table 17), concentration 0.5%, 200 μl
[17] = Example 9 (Table 15), detergent concentration 0.05%, 200 μl, listed as Zw3-14

## C=O [5% Formalin]
Rat footpad; [2]
  Time pain response, Mean, 0-10 min.: 274 s
  Time pain response, Mean, 10-20 min.: 312 sec
  Time pain response, Mean, 20-30 min.: 450 s
  Time pain response, Median, 10-20 min.: 292 sec
  Time pain response, Median, 20-30 min.: 448 s
Rat footpad; Example 1 (Table 1), 0.1 ml footpad injection, 6 rats per group, PBS not pyrogen-free
  Time pain response, Median, 0-10 min.: 311 s
Rat footpad; [3]
  0-10 min. time pain response, Mean: 178 s
  0-10 min. time pain response, Median: 162 s
  10-20 min. time pain response, Mean: 174 sec
  10-20 min. time pain response, Median: 173 sec
Rat footpad; [4]
  0-10 min. time pain response, Mean: 225 s
  0-10 min. time pain response, Median: 219 s
  10-20 min. time pain response, Mean: 167 sec
  10-20 min. time pain response, Median: 181 sec
Rat footpad; [5]
  0-10 min time pain response, Mean: 252 s
  0-10 min time pain response, Median: 233 s
  10-20 min. time pain response, Mean: 435 sec
  10-20 min. time pain response, Median: 448 sec
Rat footpad; [6]
  Mean time pain response, 0-10 min.: 161.3 s
  Mean time pain response, 10-20 min.: 313.5 sec.
Rat footpad; [7]
  Mean time pain response, 0-10 min.: 114 s
  Mean time pain response, 10-20 min.: 218 sec.
Rat footpad; [8]
  Mean time pain response, 0-10 min.: 272.5 s
  Mean time pain response, 10-20 min.: 280.4 sec.
Rat footpad
  Pain response in the rat footpad model (result in words): induced the highest pain response among the compositions tested

## CCCCCCCCCC(=O)N(C)C[C@H](O)[C@@H](O)[C@H](O)[C@H](O)CO [Mega10, Decanoyl-N-methylglucamide]
Rat footpad; [9]
  Mean time pain response, 0-10 min.: 28.8 s
  Mean time pain response, 10-20 min.: 31.0 sec.

## CCCCCCCCO[C@@H]1O[C@H](CO)[C@@H](O)[C@H](O)[C@H]1O [Octyl glucoside, n-Octyl-b-D-glucopyranoside]
Rat footpad; [10]
  Mean time pain response, 0-10 min.: 48 s
  Mean time pain response, 10-20 min.: 108 sec.
Rat footpad
  Pain in rat footpad model, survey of detergents (result in words): induced pain
  Pain response in the rat footpad model (result in words): cause considerable pain

## C[C@H](CCC(=O)NCCC[N+](C)(C)CCCS(=O)(=O)[O-])[C@H]1CC[C@H]2[C@@H]3[C@H](O)C[C@@H]4C[C@H](O)CC[C@]4(C)[C@H]3C[C@H](O)[C@]12C [CHAPS ®, 3-[(3-Cholamidopropyl)dimethylammonio]-1-propanesulfonate]
[1]
  CMC: 6 to 10 mM
  CMC (%): 0.18-0.62%
Rat footpad; [11]
  Mean time pain response, 0-10 min.: 351 s
  Mean time pain response, 10-20 min.: 114 sec.
Rat footpad
  Pain in rat footpad model, survey of detergents (result in words): caused significant pain
  Pain response in the rat footpad model (result in words): cause considerable pain

## Polyoxyethylene (35) Lauryl Ether [BRIJ]
[1]
  CMC: 0.09 mM
  CMC (%): 0.011%
Rat footpad; [12]
  Mean time pain response, 0-10 min.: 1 s
  Mean time pain response, 10-20 min.: 0 sec.
Rat footpad
  Pain in rat footpad model, survey of detergents (result in words): do not cause significant pain

## alpha-[4-(1,1,3,3-tetramethylbutyl)phenyl]-omega-hydroxypoly(oxy-1,2-ethanediyl) [TRITON ® X-100]
[1]
  CMC: 0.2 to 0.9 mM
  CMC (%): 0.013-0.056%
Rat footpad; [13]
  Mean time pain response, 0-10 min.: 8.5 s
  Mean time pain response, 10-20 min.: 11.2 sec.
Rat footpad
  Pain in rat footpad model, survey of detergents (result in words): do not cause significant pain

## CCCCCCCC/C=C\CCCCCCCC(=O)OCCOCC(OCCO)C1OCC(OCCO)C1OCCO (stereo not shown) [TWEEN 80, Polyoxyethylene (20) sorbitan monooleate]
[1]
  CMC: 0.012 mM
  CMC (%): 0.0016%
Rat footpad; [14]
  Mean time pain response, 0-10 min.: 3 s
  Mean time pain response, 10-20 min.: 6 sec.
Rat footpad
  Pain in rat footpad model, survey of detergents (result in words): do not cause significant pain

## CCCCCCCC[N+](C)(C)CCCS(=O)(=O)[O-] [Zwittergent ® 3-8, n-Octyl-N,N-dimethyl-3-ammonio-1-propanesulfonate]
[1]
  CMC: 330 mM
  CMC (%): 4.6-10.9%

## CCCCCCCCCC[N+](C)(C)CCCS(=O)(=O)[O-] [Zwittergent ® 3-10, n-Decyl-N,N-dimethyl-3-ammonio-1-propanesulfonate]
[1]
  CMC: 25 to 40 mM
  CMC (%): 0.43-1.23%
Rat footpad; [15]
  Mean time pain response, 0-10 min.: 300.6 s
  Mean time pain response, 10-20 min.: 260.5 sec.
Rat footpad
  Pain in rat footpad model, survey of detergents (result in words): caused significant pain

## Sodium deoxycholate
Rat footpad; [16]
  Mean time pain response, 0-10 min.: 307.0 s
  Mean time pain response, 10-20 min.: 121.9 sec.

## CCCCCCCCCCCCO[C@@H]1O[C@H](CO)[C@@H](O[C@H]2O[C@H](CO)[C@@H](O)[C@H](O)[C@H]2O)[C@H](O)[C@H]1O [Dodecyl maltoside, n-Dodecyl-beta-D-maltoside]
Rat footpad; [15]
  Mean time pain response, 0-10 min.: 298.0 s
  Mean time pain response, 10-20 min.: 141.0 sec.
Rat footpad
  Pain in rat footpad model, survey of detergents (result in words): induced pain

## C[C@H](CCC(=O)N(CCCNC(=O)[C@H](O)[C@@H](O)[C@H](O)[C@H](O)CO)CCCNC(=O)[C@H](O)[C@@H](O)[C@H](O)[C@H](O)CO)[C@H]1CC[C@H]2[C@@H]3[C@H](O)C[C@@H]4C[C@H](O)CC[C@]4(C)[C@H]3C[C@H](O)[C@]12C [BigCHAP ®, N,N-bis(3-D-glucon-amidopropyl)cholamide]
[1]
  CMC: 3 to 4 mM
  CMC (%): 0.3%

## CCCCCCCCCCCCCC[N+](C)(C)CCCS(=O)(=O)[O-] [Zwittergent ® 3-14, n-Tetradecyl-N,N-dimethyl-3-ammonio-1-propanesulfonate]
[1]
  CMC: 0.1 to 0.4 mM
  CMC (%): 0.004-0.015%
[1]; listed as Zw 3-14
  CMC (%): 0.004%-0.015%
Rat footpad; [17]
  Mean time pain response, 0-10 min.: 44.7 s and 37.8 s
  Mean time pain response, 10-20 min.: 33.6 sec. and 30.1 sec.
Rat footpad
  Pain in rat footpad model, survey of detergents (result in words): caused significant pain
  Pain response in the rat footpad model (result in words): responsible for the pain on injection

## CCCCCCCCCCCC[N+](C)(C)CCCS(=O)(=O)[O-] [Zwittergent ® 3-12, n-Dodecyl-N,N-dimethyl-3-ammonio-1-propanesulfonate]
[1]
  CMC: 2 to 4 mM
  CMC (%): 0.047-0.13%
Rat footpad; [13]
  Mean time pain response, 0-10 min.: 295.3 s
  Mean time pain response, 10-20 min.: 139.8 sec.
Rat footpad
  Pain in rat footpad model, survey of detergents (result in words): caused significant pain
  Pain response in the rat footpad model (result in words): responsible for the pain on injection
